Reference: the kinase profiling compilation of Christmann-Franck et al. (2016)

Assays:
Test in all cases: radiometric filter-binding kinase assay
[1] = molecular target: SRPK1 (human) (UniProt Q96SB4)
[2] = molecular target: PIM2 (human) (UniProt Q9P1W9)
[3] = molecular target: EPHA2 (human) (UniProt P29317)
[4] = system: AKT1 (human), P31749 [S473D]
[5] = molecular target: PIM3 (human) (UniProt Q86V86)
[6] = system: LCK (mouse); settings: accession and sequence are those of the human protein
[7] = system: ROCK2 (rat); settings: accession and sequence are those of the human protein
[8] = molecular target: NEK2 (human) (UniProt P51955)
Chain of NEK2 (human) (P51955 whole entry, looked up): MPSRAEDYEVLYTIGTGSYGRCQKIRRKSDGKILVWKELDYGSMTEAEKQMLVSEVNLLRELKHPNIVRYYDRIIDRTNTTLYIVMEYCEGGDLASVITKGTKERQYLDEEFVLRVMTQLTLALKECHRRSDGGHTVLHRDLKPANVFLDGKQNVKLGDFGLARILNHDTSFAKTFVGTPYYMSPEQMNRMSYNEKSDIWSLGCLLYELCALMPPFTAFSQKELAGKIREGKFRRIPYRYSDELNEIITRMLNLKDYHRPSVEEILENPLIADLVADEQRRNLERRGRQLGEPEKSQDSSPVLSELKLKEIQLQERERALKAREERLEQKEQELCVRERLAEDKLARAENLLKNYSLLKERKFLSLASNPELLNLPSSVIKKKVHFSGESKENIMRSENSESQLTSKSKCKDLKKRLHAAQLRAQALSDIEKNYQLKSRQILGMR

[9] = molecular target: STK11 CAB39 STRADA (human) (UniProt Q9Y376+Q7RTN6+Q15831)
[10] = molecular target: PKN2 (human) (UniProt Q16513)
[11] = molecular target: CSNK2A1 (human) (UniProt P68400)
[12] = system: AKT2 (human), P31751 [S474D]
Chain of AKT2 (human), P31751 [S474D] (P31751 whole entry S474D, looked up): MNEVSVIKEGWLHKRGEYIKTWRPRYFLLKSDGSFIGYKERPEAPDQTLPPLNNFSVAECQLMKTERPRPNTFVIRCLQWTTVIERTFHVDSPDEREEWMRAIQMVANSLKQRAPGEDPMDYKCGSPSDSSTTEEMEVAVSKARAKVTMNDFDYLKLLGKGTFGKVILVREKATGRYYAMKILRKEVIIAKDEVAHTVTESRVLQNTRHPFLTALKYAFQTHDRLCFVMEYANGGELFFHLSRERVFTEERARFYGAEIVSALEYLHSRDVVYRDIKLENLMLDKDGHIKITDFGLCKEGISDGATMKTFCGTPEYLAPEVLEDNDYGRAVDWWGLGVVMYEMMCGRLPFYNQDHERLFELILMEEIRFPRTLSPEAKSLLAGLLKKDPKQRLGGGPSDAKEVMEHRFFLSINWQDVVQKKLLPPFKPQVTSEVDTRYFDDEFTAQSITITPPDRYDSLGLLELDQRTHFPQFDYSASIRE

[13] = molecular target: TBK1 (human) (UniProt Q9UHD2)
[14] = molecular target: SYK (human) (UniProt P43405)
[15] = molecular target: MAP2K6 (human) (UniProt P52564)
Chain of MAP2K6 (human) (P52564 whole entry, looked up): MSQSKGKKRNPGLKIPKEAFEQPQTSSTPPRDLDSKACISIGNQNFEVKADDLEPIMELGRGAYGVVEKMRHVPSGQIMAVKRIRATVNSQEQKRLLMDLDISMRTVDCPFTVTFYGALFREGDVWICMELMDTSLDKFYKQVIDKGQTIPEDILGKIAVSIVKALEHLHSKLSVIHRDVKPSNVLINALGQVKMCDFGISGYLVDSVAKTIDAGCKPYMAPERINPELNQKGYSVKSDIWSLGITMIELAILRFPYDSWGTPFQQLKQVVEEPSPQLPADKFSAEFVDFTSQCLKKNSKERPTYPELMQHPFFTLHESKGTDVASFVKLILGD

[16] = molecular target: INSR (human) (UniProt P06213)
[17] = molecular target: MARK2 (human) (UniProt Q7KZI7)
[18] = molecular target: TTK (human) (UniProt P33981)
[19] = molecular target: FGFR1 (human) (UniProt P11362)
[20] = system: RPS6KB1 (human), P23443 [T412E]
[21] = molecular target: GSK3B (human) (UniProt P49841)
Chain of GSK3B (human) (P49841 whole entry, looked up): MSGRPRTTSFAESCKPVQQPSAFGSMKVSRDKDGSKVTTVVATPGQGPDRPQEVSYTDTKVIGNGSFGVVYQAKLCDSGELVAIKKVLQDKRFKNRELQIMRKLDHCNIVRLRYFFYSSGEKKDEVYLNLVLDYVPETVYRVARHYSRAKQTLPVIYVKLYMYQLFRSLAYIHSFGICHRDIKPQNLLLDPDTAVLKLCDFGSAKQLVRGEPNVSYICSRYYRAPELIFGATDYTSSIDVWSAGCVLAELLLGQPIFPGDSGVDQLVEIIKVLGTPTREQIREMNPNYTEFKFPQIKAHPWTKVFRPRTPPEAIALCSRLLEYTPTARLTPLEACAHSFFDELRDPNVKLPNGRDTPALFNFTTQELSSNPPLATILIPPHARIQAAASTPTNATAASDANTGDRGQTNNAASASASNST

[22] = molecular target: EPHB1 (human) (UniProt P54762)
Chain of EPHB1 (human) (P54762 whole entry, looked up): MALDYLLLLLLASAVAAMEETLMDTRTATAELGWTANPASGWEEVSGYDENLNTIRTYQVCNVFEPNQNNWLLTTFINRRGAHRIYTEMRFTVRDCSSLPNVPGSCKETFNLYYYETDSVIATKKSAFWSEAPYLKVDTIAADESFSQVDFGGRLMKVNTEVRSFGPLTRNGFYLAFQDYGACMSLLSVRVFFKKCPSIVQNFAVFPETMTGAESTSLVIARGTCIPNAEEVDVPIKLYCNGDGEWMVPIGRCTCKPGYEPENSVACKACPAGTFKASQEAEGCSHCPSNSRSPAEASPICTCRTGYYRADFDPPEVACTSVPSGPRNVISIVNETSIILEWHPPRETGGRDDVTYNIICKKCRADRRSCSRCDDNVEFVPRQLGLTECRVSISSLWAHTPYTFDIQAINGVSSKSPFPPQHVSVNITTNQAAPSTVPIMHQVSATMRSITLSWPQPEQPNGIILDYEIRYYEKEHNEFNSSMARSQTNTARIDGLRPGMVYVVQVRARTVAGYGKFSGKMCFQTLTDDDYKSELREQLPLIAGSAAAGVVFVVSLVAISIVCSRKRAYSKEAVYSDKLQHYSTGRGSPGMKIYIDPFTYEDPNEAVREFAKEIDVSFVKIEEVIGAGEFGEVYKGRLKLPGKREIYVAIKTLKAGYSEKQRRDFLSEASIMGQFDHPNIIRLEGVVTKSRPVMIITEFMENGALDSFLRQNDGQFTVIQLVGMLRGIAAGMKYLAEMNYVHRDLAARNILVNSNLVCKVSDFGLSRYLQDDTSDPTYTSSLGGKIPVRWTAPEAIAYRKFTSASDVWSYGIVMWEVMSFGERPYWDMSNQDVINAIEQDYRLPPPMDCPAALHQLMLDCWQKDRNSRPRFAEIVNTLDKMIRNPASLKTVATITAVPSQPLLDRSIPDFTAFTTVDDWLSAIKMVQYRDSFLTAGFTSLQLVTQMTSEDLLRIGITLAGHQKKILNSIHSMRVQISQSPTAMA

[23] = molecular target: MAPK11 (human) (UniProt Q15759)
[24] = molecular target: INSRR (human) (UniProt P14616)
[25] = molecular target: IRAK4 (human) (UniProt Q9NWZ3)
[26] = molecular target: MYLK (human) (UniProt Q15746)
[27] = molecular target: MAP2K1 (human) (UniProt Q02750)
Chain of MAP2K1 (human) (Q02750 whole entry, looked up): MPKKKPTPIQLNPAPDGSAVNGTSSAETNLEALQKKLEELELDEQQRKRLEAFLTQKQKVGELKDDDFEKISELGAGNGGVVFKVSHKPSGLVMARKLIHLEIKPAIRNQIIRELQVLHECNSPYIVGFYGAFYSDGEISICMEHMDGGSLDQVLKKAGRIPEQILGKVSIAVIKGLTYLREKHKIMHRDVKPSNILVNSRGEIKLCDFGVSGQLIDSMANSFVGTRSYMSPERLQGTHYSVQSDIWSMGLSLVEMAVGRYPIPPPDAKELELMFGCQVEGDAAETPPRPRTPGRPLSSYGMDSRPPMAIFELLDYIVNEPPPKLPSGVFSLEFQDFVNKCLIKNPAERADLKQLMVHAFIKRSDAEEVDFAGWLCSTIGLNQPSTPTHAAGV

[28] = molecular target: MKNK1 (human) (UniProt Q9BUB5)
[29] = system: PAK2 (human), Q13177 [T402E]
[30] = molecular target: PHKG1 (human) (UniProt Q16816)
[31] = molecular target: MAP3K9 (human) (UniProt P80192)
Chain of MAP3K9 (human) (P80192 whole entry, looked up): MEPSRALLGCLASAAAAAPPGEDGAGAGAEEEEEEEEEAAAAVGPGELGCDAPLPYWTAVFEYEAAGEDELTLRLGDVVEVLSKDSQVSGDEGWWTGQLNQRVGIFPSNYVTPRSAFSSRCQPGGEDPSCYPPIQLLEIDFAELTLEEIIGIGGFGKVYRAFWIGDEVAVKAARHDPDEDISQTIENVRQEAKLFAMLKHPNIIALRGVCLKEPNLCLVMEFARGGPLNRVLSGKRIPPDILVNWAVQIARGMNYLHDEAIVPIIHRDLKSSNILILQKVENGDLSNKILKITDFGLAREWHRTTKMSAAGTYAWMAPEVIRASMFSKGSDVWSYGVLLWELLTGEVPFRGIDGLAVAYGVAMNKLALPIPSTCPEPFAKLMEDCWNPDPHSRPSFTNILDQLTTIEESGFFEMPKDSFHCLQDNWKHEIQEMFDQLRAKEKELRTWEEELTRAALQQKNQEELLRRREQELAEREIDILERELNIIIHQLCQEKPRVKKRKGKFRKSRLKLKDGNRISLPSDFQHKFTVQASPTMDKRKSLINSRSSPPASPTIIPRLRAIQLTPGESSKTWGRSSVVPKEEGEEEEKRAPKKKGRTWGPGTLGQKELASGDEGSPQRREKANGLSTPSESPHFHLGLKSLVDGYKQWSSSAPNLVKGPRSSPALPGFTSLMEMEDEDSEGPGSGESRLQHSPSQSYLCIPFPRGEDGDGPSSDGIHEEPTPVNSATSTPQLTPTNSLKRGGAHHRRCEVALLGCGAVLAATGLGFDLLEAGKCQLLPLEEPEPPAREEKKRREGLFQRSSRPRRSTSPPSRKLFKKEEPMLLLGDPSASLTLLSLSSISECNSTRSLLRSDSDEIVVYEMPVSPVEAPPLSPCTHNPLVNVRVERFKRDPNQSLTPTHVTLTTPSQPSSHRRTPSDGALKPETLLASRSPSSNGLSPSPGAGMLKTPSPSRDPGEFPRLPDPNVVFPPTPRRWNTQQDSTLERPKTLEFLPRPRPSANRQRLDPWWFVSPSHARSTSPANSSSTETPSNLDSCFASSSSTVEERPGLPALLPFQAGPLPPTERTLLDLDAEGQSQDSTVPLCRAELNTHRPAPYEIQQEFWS

[32] = molecular target: MAPK10 (human) (UniProt P53779)
[33] = molecular target: NEK6 (human) (UniProt Q9HC98)
Chain of NEK6 (human) (Q9HC98 whole entry, looked up): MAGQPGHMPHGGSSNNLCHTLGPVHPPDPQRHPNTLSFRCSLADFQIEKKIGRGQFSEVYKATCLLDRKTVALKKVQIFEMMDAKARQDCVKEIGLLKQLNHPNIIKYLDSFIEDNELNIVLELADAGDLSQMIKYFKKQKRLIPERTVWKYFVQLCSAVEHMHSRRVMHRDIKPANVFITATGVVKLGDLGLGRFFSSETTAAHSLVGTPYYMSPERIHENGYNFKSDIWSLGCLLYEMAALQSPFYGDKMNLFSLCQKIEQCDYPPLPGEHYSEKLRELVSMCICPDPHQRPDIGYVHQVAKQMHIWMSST

[34] = molecular target: DYRK3 (human) (UniProt O43781)
[35] = molecular target: MAPK13 (human) (UniProt O15264)
[36] = molecular target: MARK1 (human) (UniProt Q9P0L2)

CCCCCc1ccc(/C=C/[C@H](O)[C@@H](CO)NC)cc1
residual activity ([1]; compound 0.1 µM): 92%
residual activity ([1]; compound 1.0 µM): 89%
residual activity ([1]; compound 10.0 µM): 83%
residual activity ([2]; compound 0.1 µM): 103%
residual activity ([2]; compound 1.0 µM): 109%
residual activity ([2]; compound 10.0 µM): 97%
residual activity ([3]; compound 0.1 µM): 103%
residual activity ([3]; compound 1.0 µM): 91%
residual activity ([3]; compound 10.0 µM): 91%
residual activity ([4]; compound 0.1 µM): 99%
residual activity ([4]; compound 1.0 µM): 97%
residual activity ([5]; compound 0.1 µM): 118%
residual activity ([5]; compound 1.0 µM): 121%
residual activity ([5]; compound 10.0 µM): 107%
residual activity ([6]; compound 0.1 µM): 106%
residual activity ([6]; compound 1.0 µM): 92%
residual activity ([6]; compound 10.0 µM): 84%
residual activity ([7]; compound 0.1 µM): 110%
residual activity ([7]; compound 1.0 µM): 94%
residual activity ([7]; compound 10.0 µM): 116%
residual activity ([8]; compound 0.1 µM): 110%
residual activity ([8]; compound 1.0 µM): 103%
residual activity ([8]; compound 10.0 µM): 108%
residual activity ([9]; compound 0.1 µM): 93%
residual activity ([9]; compound 1.0 µM): 89%
residual activity ([9]; compound 10.0 µM): 98%
residual activity ([10]; compound 0.1 µM): 78%
residual activity ([10]; compound 1.0 µM): 70%
residual activity ([10]; compound 10.0 µM): 58%
residual activity ([11]; compound 0.1 µM): 78%
residual activity ([11]; compound 1.0 µM): 87%
residual activity ([11]; compound 10.0 µM): 83%
residual activity ([12]; compound 0.1 µM): 85%
residual activity ([12]; compound 1.0 µM): 90%
residual activity ([12]; compound 10.0 µM): 86%
residual activity ([13]; compound 0.1 µM): 111%
residual activity ([13]; compound 10.0 µM): 93%
residual activity ([14]; compound 0.1 µM): 134%
residual activity ([14]; compound 1.0 µM): 105%
residual activity ([14]; compound 10.0 µM): 92%
residual activity ([15]; compound 0.1 µM): 102%
residual activity ([15]; compound 1.0 µM): 98%
residual activity ([15]; compound 10.0 µM): 99%
residual activity ([16]; compound 0.1 µM): 107%
residual activity ([16]; compound 10.0 µM): 99%
residual activity ([17]; compound 0.1 µM): 89%
residual activity ([17]; compound 1.0 µM): 97%
residual activity ([17]; compound 10.0 µM): 83%
residual activity ([18]; compound 0.1 µM): 95%
residual activity ([18]; compound 1.0 µM): 91%
residual activity ([18]; compound 10.0 µM): 86%
residual activity ([19]; compound 0.1 µM): 115%
residual activity ([19]; compound 1.0 µM): 111%
residual activity ([19]; compound 10.0 µM): 104%
residual activity ([20]; compound 0.1 µM): 114%
residual activity ([20]; compound 1.0 µM): 108%
residual activity ([20]; compound 10.0 µM): 100%
residual activity ([21]; compound 0.1 µM): 83%
residual activity ([21]; compound 1.0 µM): 88%
residual activity ([21]; compound 10.0 µM): 71%
residual activity ([22]; compound 0.1 µM): 126%
residual activity ([22]; compound 1.0 µM): 108%
residual activity ([22]; compound 10.0 µM): 115%
residual activity ([23]; compound 0.1 µM): 99%
residual activity ([23]; compound 1.0 µM): 106%
residual activity ([23]; compound 10.0 µM): 95%
residual activity ([24]; compound 0.1 µM): 99%
residual activity ([24]; compound 1.0 µM): 94%
residual activity ([24]; compound 10.0 µM): 100%
residual activity ([25]; compound 0.1 µM): 72%
residual activity ([25]; compound 1.0 µM): 66%
residual activity ([25]; compound 10.0 µM): 67%
residual activity ([26]; compound 0.1 µM): 90%
residual activity ([26]; compound 1.0 µM): 95%
residual activity ([26]; compound 10.0 µM): 91%
residual activity ([27]; compound 0.1 µM): 97%
residual activity ([27]; compound 1.0 µM): 102%
residual activity ([27]; compound 10.0 µM): 97%
residual activity ([28]; compound 0.1 µM): 101%
residual activity ([28]; compound 1.0 µM): 92%
residual activity ([28]; compound 10.0 µM): 93%
residual activity ([29]; compound 0.1 µM): 113%
residual activity ([29]; compound 1.0 µM): 103%
residual activity ([29]; compound 10.0 µM): 113%
residual activity ([30]; compound 0.1 µM): 99%
residual activity ([30]; compound 1.0 µM): 86%
residual activity ([30]; compound 10.0 µM): 76%
residual activity ([31]; compound 0.1 µM): 105%
residual activity ([31]; compound 1.0 µM): 108%
residual activity ([31]; compound 10.0 µM): 100%
residual activity ([32]; compound 0.1 µM): 93%
residual activity ([32]; compound 1.0 µM): 103%
residual activity ([32]; compound 10.0 µM): 98%
residual activity ([33]; compound 0.1 µM): 92%
residual activity ([33]; compound 1.0 µM): 86%
residual activity ([33]; compound 10.0 µM): 84%
residual activity ([34]; compound 0.1 µM): 93%
residual activity ([34]; compound 1.0 µM): 98%
residual activity ([34]; compound 10.0 µM): 93%
residual activity ([35]; compound 0.1 µM): 90%
residual activity ([35]; compound 1.0 µM): 99%
residual activity ([35]; compound 10.0 µM): 90%
residual activity ([36]; compound 0.1 µM): 114%
residual activity ([36]; compound 1.0 µM): 112%
residual activity ([36]; compound 10.0 µM): 104%
